# Test results: patent US20060148774A1, “Hypoglycemic agent” (Riken, priority 2001, published 2006)
# Tests used:
# [1] = tested on: c57BL db/db male mice; experiment: Change in blood sugar level in Type-2 diabetes model mice fed 5-campesten-3-one in the feed; format: in vivo; settings: for blood sugar level relative to control group (second group): 0.1% in the feed
# [2] = Body weight; format: in vivo; settings: db/db mice, 0.3% in the feed, 19-week old
# [3] = tested on: c57BL db/db male mice; settings: 19-week old
# Procedure: (§1) 6-Week old c57BL db/db male mice, as being a Type-2 diabetes model animal having homozygote diabetes pathogenic gene (db), were divided in three groups each consisting of 10 animals. A group of healthy c57BL db/+m male mice (10 animals) having heterozygote db gene was used as a control group. The animals were housed in plastic cages for mice at five animals per cage. The animals were fed under feeding conditions at a temperature of 24±1° C. and a relative humidity of 55±5%, where light and darkness were controlled to change every 12 hours, and each cage and bedding materials were exchanged twice a week. The animals were allowed to water ad libitum.
# (§2) Feed CMF for mouse (Oriental Yeast Co.) was used as a basic feed, and 0.1% or 0.3% of 5-campesten-3-one was mixed to the feed to prepare an experimental feed. The resulting feeds were kept at 4° C. before the start of feeding.
# (§3) The animals were autopsied, and the brain, lungs, heart, liver, spleen, pancreas, kidneys, adrenals, and testis were macroscopically examined and weighed.
# [4] = tested on: c57BL db/db male mice; experiment: Oral glucose tolerance test (OGTT); format: in vivo; settings: db/db mice 19-week old; for OGTT blood sugar level: glucose 2 g/kg oral
# Procedure: The animals were allowed to water ad libitum.
# For oral glucose tolerance test, the animals, starved for 16 hours from the night before of the end of the feeding (19-week old), were orally administered with glucose (2 g/kg), and the bloods were collected from orbital venous plexus at time 0 and after 60 and 120 minutes by using a capillary glass to measure blood sugar levels.
# [5] = tested on: c57BL db/db male mice; experiment: Urinary sugar by urinary test paper; format: in vivo; settings: for urinary sugar, Positive ratio: + or higher positive
# [6] = tested on: c57BL db/db male mice; settings: mouse, in vivo
# Procedure: as §1, §2, §3
# [7] = 0.3% in the feed, 7- to 17-week old
# [8] = 0.1% in the feed, week 7 (period 0 week)
# [9] = 0.1% in the feed, week 9 (period 2 weeks)
# [10] = 0.1% in the feed, week 11 (period 4 weeks)
# [11] = 0.1% in the feed, week 13 (period 6 weeks)
# [12] = 0.1% in the feed, week 15 (period 8 weeks)
# [13] = 0.1% in the feed, week 17 (period 10 weeks)
# [14] = 0.3% in the feed, week 7 (period 0 week)
# [15] = 0.3% in the feed, week 9 (period 2 weeks)
# [16] = 0.3% in the feed, week 11 (period 4 weeks)
# [17] = 0.3% in the feed, week 13 (period 6 weeks)
# [18] = 0.3% in the feed, week 15 (period 8 weeks)
# [19] = 0.3% in the feed, week 17 (period 10 weeks)
smiles,measurement,setting,value
CC(C)[C@H](C)CC[C@@H](C)[C@H]1CC[C@H]2[C@@H]3CC=C4CC(=O)CC[C@]4(C)[C@H]3CC[C@]12C [5-campesten-3-one],blood sugar level relative to control group (second group),[1]; 9-week old,increased
same,blood sugar level relative to control group (second group),[1]; 11-week old,decreased
same,blood sugar level relative to control group (second group),[1]; 17-week old,lower level
same,change with time in blood sugar level,[1]; [7],almost constant level without a significant increase
same,"blood sugar level, initial value","[1]; 0.3% in the feed, 7-week old",270 mg/dL
same,blood sugar level compared to control group (second group),"[1]; 0.3% in the feed, after 9-week old",significantly lower values at every measuring times after 9-week old
same,body weight compared to control group (second group),[2],significantly higher
same,"autopsy of brain, heart, lungs, livers, pancreas, spleen, kidneys, adrenals","[3]; 0.1% and 0.3% in the feed, some mice with fat liver, as in the control db/db group",no particular abnormality was observed
same,weight of the testis (absolute weight) as % of that of the healthy mice (first group),"[3]; 0.3% in the feed, untreated diabetic mice 50 to 60%",85%
same,OGTT blood sugar levels compared to second group,"[4]; 0.1% in the feed, every measuring point",significantly lower than the levels of the second group at every measuring points
same,OGTT blood sugar level,"[4]; 0.1% in the feed, 60 minutes",703 mg/dL
same,OGTT blood sugar level,"[4]; 0.1% in the feed, 120 minutes",558 mg/dL
same,OGTT blood sugar level,"[4]; 0.1% in the feed, time 0",497 mg/dL
same,OGTT blood sugar level,"[4]; 0.3% in the feed, 60 minutes",almost the same 60-munites value as that of the third group
same,OGTT blood sugar level,"[4]; 0.3% in the feed, 120 minutes",440 mg/dL
same,OGTT blood sugar level,"[4]; 0.3% in the feed, time 0",282 mg/dL
same,onset of positive urinary sugar,[5]; 0.1% in the feed,a delay in giving a positive result was observed
same,"urinary sugar, number of mice graded +",[5]; [8],1
same,"urinary sugar, number of mice graded ++",[5]; [8],0
same,"urinary sugar, number of mice graded +++",[5]; [8],4
same,"urinary sugar, number of mice graded ±",[5]; [8],1
same,"urinary sugar, number of mice graded −",[5]; [8],2
same,"urinary sugar, Positive ratio",[5]; [8],63%
same,"urinary sugar, number of mice graded +",[5]; [9],0
same,"urinary sugar, number of mice graded ++",[5]; [9],2
same,"urinary sugar, number of mice graded +++",[5]; [9],2
same,"urinary sugar, number of mice graded ±",[5]; [9],2
same,"urinary sugar, number of mice graded −",[5]; [9],1
same,"urinary sugar, Positive ratio",[5]; [9],57%
same,"urinary sugar, number of mice graded +",[5]; [10],1
same,"urinary sugar, number of mice graded ++",[5]; [10],0
same,"urinary sugar, number of mice graded +++",[5]; [10],7
same,"urinary sugar, number of mice graded ±",[5]; [10],0
same,"urinary sugar, number of mice graded −",[5]; [10],1
same,"urinary sugar, Positive ratio",[5]; [10],89%
same,"urinary sugar, number of mice graded +",[5]; [11],0
same,"urinary sugar, number of mice graded ++",[5]; [11],0
same,"urinary sugar, number of mice graded +++",[5]; [11],9
same,"urinary sugar, number of mice graded ±",[5]; [11],0
same,"urinary sugar, number of mice graded −",[5]; [11],0
same,"urinary sugar, Positive ratio",[5]; [11],100%
same,"urinary sugar, number of mice graded +",[5]; [12],0
same,"urinary sugar, number of mice graded ++",[5]; [12],1
same,"urinary sugar, number of mice graded +++",[5]; [12],8
same,"urinary sugar, number of mice graded ±",[5]; [12],0
same,"urinary sugar, number of mice graded −",[5]; [12],0
same,"urinary sugar, Positive ratio",[5]; [12],100%
same,"urinary sugar, number of mice graded +",[5]; [13],1
same,"urinary sugar, number of mice graded ++",[5]; [13],0
same,"urinary sugar, number of mice graded +++",[5]; [13],8
same,"urinary sugar, number of mice graded ±",[5]; [13],0
same,"urinary sugar, number of mice graded −",[5]; [13],0
same,"urinary sugar, Positive ratio",[5]; [13],100%
same,"positive ratio of urinary sugar, range over the test period",[5]; [7],14 to 70%
same,positive degrees of urinary sugar compared to control group (second group),"[5]; 0.3% in the feed, almost a half of the mice + (150 mg/dl) or ++ (500 mg/dl)",lower than the results of the control group
same,"urinary sugar, number of mice graded +",[5]; [14],0
same,"urinary sugar, number of mice graded ++",[5]; [14],0
same,"urinary sugar, number of mice graded +++",[5]; [14],1
same,"urinary sugar, number of mice graded ±",[5]; [14],0
same,"urinary sugar, number of mice graded −",[5]; [14],6
same,"urinary sugar, Positive ratio",[5]; [14],14%
same,"urinary sugar, number of mice graded +",[5]; [15],0
same,"urinary sugar, number of mice graded ++",[5]; [15],1
same,"urinary sugar, number of mice graded +++",[5]; [15],0
same,"urinary sugar, number of mice graded ±",[5]; [15],0
same,"urinary sugar, number of mice graded −",[5]; [15],4
same,"urinary sugar, Positive ratio",[5]; [15],20%
same,"urinary sugar, number of mice graded +",[5]; [16],0
same,"urinary sugar, number of mice graded ++",[5]; [16],2
same,"urinary sugar, number of mice graded +++",[5]; [16],3
same,"urinary sugar, number of mice graded ±",[5]; [16],1
same,"urinary sugar, number of mice graded −",[5]; [16],2
same,"urinary sugar, Positive ratio",[5]; [16],63%
same,"urinary sugar, number of mice graded +",[5]; [17],1
same,"urinary sugar, number of mice graded ++",[5]; [17],2
same,"urinary sugar, number of mice graded +++",[5]; [17],2
same,"urinary sugar, number of mice graded ±",[5]; [17],0
same,"urinary sugar, number of mice graded −",[5]; [17],5
same,"urinary sugar, Positive ratio",[5]; [17],50%
same,"urinary sugar, number of mice graded +",[5]; [18],1
same,"urinary sugar, number of mice graded ++",[5]; [18],1
same,"urinary sugar, number of mice graded +++",[5]; [18],2
same,"urinary sugar, number of mice graded ±",[5]; [18],1
same,"urinary sugar, number of mice graded −",[5]; [18],4
same,"urinary sugar, Positive ratio",[5]; [18],44%
same,"urinary sugar, number of mice graded +",[5]; [19],3
same,"urinary sugar, number of mice graded ++",[5]; [19],1
same,"urinary sugar, number of mice graded +++",[5]; [19],3
same,"urinary sugar, number of mice graded ±",[5]; [19],2
same,"urinary sugar, number of mice graded −",[5]; [19],1
same,"urinary sugar, Positive ratio",[5]; [19],70%
same,general conditions during the experimental period,[6],no abnormal findings such as diarrhea was observed
